Reference: patent US6548543B1, “Remedies or preventives containing cyclopentenone compounds as the active ingredient” (Takara Shuzo Co., Ltd., priority 1998, dated 2003)

Tests used:
[1] = tested on: adhesion between vascular endothelial cells and HL-60 cells; test: Adhesion of HL-60 cells to TNF-α-stimulated vascular endothelial cells; format: cell-based, Human; details: for Adhesion rate: TNF-α-stimulated endothelial cells
Experimental: Human vascular endothelial cells (sold by Sanko Junyaku) suspended in RPMI-1640 medium (Gibco) containing 10% FCS (HyClone) at a concentration of 1×10^5 cells/ml. 100 μl/well of the suspension was seeded into a 96-well microtiter plate.
100 U/ml of human recombinant TNF-α (Promega) was added to monolayer of vascular endothelial cells after incubation at 37° C. for 2 days in a 5% CO2 incubator. The plate was incubated 37° C. for 6 hours in a 5% CO2 incubator to prepare vascular endothelial cells stimulated with TNF-α.
On the other hand, cyclopentenone, GM or dipropionylcyclopentenone at a varying concentration was added to HL-60 cells suspended in RPMI-1640 medium containing 10% FCS at a concentration of 1×10^6 cells/ml. The cells were cultured at 37° C. for 3 hours in a 5% CO2 incubator. After cultivation, 5 μM of 5(-and-6)-carboxyfluorescein diacetate, succinimide ester (Molecular Probe) as a fluorescent agent was added thereto and reacted at 37° C. for 10 minutes. The cells were washed twice with RPMI-1640 medium and suspended in RPMI-1640 medium containing 10% FCS to prepare a suspension of fluorescence-labeled HL-60 cells at a concentration of 1×10^6 cells/ml.
100 μl/well of the fluorescence-labeled HL-60 cells were overlaid onto the vascular endothelial cells stimulated with TNF-α. Cyclopentenone, GM or dipropionylcyclopentenone at a varying concentration was added thereto. The plate was incubated at 37° C. for 20 minutes in a 5% CO2 incubator for adhesion reaction between vascular endothelial cells and HL-60 cells.
After the adhesion reaction, the plate was washed to remove non-adhesive cells. 1% Triton X (Nacalai Tesque) was added thereto to destroy adhesive cells. The fluorescence intensity was measured using filters for 485/22 nm (excitation) and 530/25 nm (emission).
The adhesion rate which represents the ratio of cells adhered to vascular endothelial cells was determined defining the fluorescence intensity for 1×10^5 fluorescence-labeled cells as 100%.

NK cells = format: in vivo, ddY mice; details: mice administered intraperitoneally
Experimental: ddY mice (female, 7 weeks old) were purchased from Japan SLC and pre-bred for 1 week before using in experiments.
1×10^6 Ehrlich ascites carcinoma cells were intraperitoneally inoculated to each mouse. 10 mg/kg of cyclopentenone, 30 mg/kg of GM or 10 mg/kg of dipropionylcyclopentenone was intraperitoneally administered to the mouse on the day after the inoculation. Saline was administered to a control mouse.
A spleen was taken out from the mouse 10 days after the inoculation with cancer cells, finely minced and suspended in RPMI-1640 medium containing 10% FCS (HyClone) to obtain a single cell suspension. Adhesive cells adhered to a plastic Petri dish were removed from the cell suspension and non-adhesive cells were used as NK cells.
The NK cells were suspended in RPMI-1640 medium containing 10% FCS at a concentration of 6×10^6/ml. 100 μl/well of the suspension was seeded into a microtiter plate.
Target cells were prepared as follows. 3700 kBq of ^51Cr (Amersham) was added to 1×10^6 YAC-1 cells (Dainippon Pharmaceutical). The cells were cultured at 37° C. for 1 hour for labeling. The labeled cells were washed twice and then suspended in RPMI-1640 medium containing 10% FCS at a concentration of 2×10^5 cells/ml. […] The radioactivity (experimental value) was measured using an auto gamma counter.
100 μl of the culture medium was added to the reaction system in place of the NK cells and the radioactivity was measured in order to measure the radioactivity spontaneously released from the target cells (control value).
Furthermore, the radioactivity released into the supernatant when 1% Triton (Nacalai Tesque) was added to the reaction system to lyse the 51Cr-labeled YAC-1 cells was measured in order to measure the total radioactivity contained in the reaction system (total radioactivity value).
The cytotoxicity (%) specifically mediated by the NK cells can be determined according to the following equation.
Cytotoxicity (%)=[(experimental value−control value)/(total radioactivity value−control value)]×100

Meth A tumor cells = test: Survival of mice given Meth A tumor cells, single dose; format: in vivo, BALB/c mouse; details: single dose 10 mg/kg intraperitoneal
Experimental: (1) Mouse leukemia P-388 (1.1×10^6 cells/mouse) was intraperitoneally administered to a 7-weeks old female DBA/2 mouse. Immediately after the administration, a single dose of 10 mg/kg dipropionylcyclopentenone was intraperitoneally administered. On the other hand, saline was intraperitoneally administered to a control group in a similar manner. Survival number of mice, average days of survival and prolongation rate were calculated for 2 groups each consisting of 8 mice.
Similarly, examination was carried out using a system of Meth A tumor cells: BALB/c mouse. As a result, the average days of survival were 13.4 days for the control group. The average days of survival were 16.9 days for the group administered with dipropionylcyclopentenone.

Mouse solid tumor Meth A = test: Mouse solid tumor Meth A, weight of cancer; format: in vivo, BALB/c mouse; details: subcutaneous at tumor site for successive 5 days, after 2 weeks
Experimental: (2) Mouse solid tumor Meth A (2×10^6 cells/mouse) was subcutaneously injected into a back of a 8-weeks old female BALB/c mouse. Subsequently, dipropionylcyclopentenone was subcutaneously injected at the same site for successive 5 days. Saline was subcutaneously injected to a control group in a similar manner. Each group consisted of 8 mice.
After 2 weeks, the cancerous tissue formed in the back of the mouse was taken out and the weight of the tissue was measured.

Meth A = test: Ascitic cancer Meth A, prolongation of survival, 5 successive days; format: in vivo, BALB/c mouse; details: for 30-day survival number: groups of 8 mice
Experimental: (3) The carcinostatic activities of dipropionylcyclopentenone and diisobutyrylcyclopentenone against various ascitic cancers were examined using two types of cancer cells, Ehrlich ascites carcinoma (EAC) and Meth A, administered intraperitoneally or orally at a varying dose.
Dipropionylcyclopentenone or diisobutyrylcyclopentenone was intraperitoneally or orally administered for 5 successive days from the day after the transplantation with cancer cells. Injectable distilled water was administered to a control group in a similar manner. Average days of survival, prolongation rate and 30-day survival number were calculated for groups each consisting of 8 mice.

`CCC(=O)OC1C=CC(=O)C1OC(=O)CC` (stereo not drawn) showed an Adhesion rate ([1]; 0.1 μM) of 49.2%, an Adhesion rate ([1]; 1 μM) of 35.1% and an Adhesion rate ([1]; 10 μM) of 15.3%. For the same compound, the Adhesion rate ([1]; 100 μM) was 15.5%, the “Suppression of TNF-α-induced increase in adhesion rate (statement)” value ([1]; 10^−7 to 10^−4 M, dose-dependent) was “suppressed” and the “Activation of NK cells (statement)” value (NK cells) was “Activation of NK cells was observed”. For the same compound, the “Average days of survival” value (Meth A tumor cells) was 16.9 days, the Prolongation rate (Meth A tumor cells) was 126.2% and the Inhibition rate (Mouse solid tumor Meth A) was 92.3%. The “Mice in which no cancerous tissue was formed” value (Mouse solid tumor Meth A) was 5 out of 8, the “Weight of cancer mean ± SE” value (Mouse solid tumor Meth A) was 0.05 ± 0.08 g and the “Weight of cancer mean ± SE” value (Mouse solid tumor Meth A; listed as dipropionylcyclopentenone) was 0.05 g. For the same compound, the “Average days of survival” value (Meth A; intraperitoneal 10 mg/kg) was 20.5 days, the Prolongation rate (Meth A; intraperitoneal 10 mg/kg) was 174% and the 30-day survival number (Meth A; intraperitoneal 10 mg/kg) was 0. The “Average days of survival” value (Meth A; oral 30 mg/kg) was 17.3 days, the Prolongation rate (Meth A; oral 30 mg/kg) was greater than 147% and the 30-day survival number (Meth A; oral 30 mg/kg) was 2.
